The source of these data is PubChem BioAssay AID1313 (NMMLSC, 2008).

The source made the active and inactive calls.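 How the source made its calls: active means compounds raising total GFP signal across six hours by more than 15% versus untreated cells; inactive means the rest.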 Peptide text beside a SMILES is read from it. * marks the point of attachment. Cbz = O=C(OCc1ccccc1)*

The subject of the test is S. cerevisiae Sic1-GFP degradation, flow cytometry time course. In words: inhibition of Sic1-GFP fusion degradation in yeast, secondary assay, flow cytometry, S. cerevisiae (AID 1313). Conditions: stronger effect = higher value; for GFP expression remaining at 240 min: measured here: earlier time point.

As for `CC(=O)N1C(=O)C(=C2C=C(C)OC(C)=C2)c2ccccc21`, the GFP expression remaining at 360 min is 0.71% (inactive) and the GFP expression remaining at 240 min came to 1.3%.
Turning to `CC(C)C[C@@H](C=O)NC(=O)[C@H](CC(C)C)NC(=O)[C@H](CC(C)C)NC(=O)OCc1ccccc1` (Cbz-Leu-Leu-Leu-aldehyde), the GFP expression remaining at 360 min was 1.68% (inactive) and the GFP expression remaining at 240 min turned out to be 3.24%.
